# Patent publication US8952024B2, “Herbicidal pyrimidone derivatives” (E I du Pont de Nemours and Company, priority 2009, dated 2015)
# What was measured:
# Type in all cases: in vivo
# [1] = test system: velvetleaf (Abutilon theophrasti); assay: Test A pre-/postemergence plant response
# Summary of the method: (§1)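 Seeds planted in loam soil/sand blend; test chemicals in non-phytotoxic solvent mixture with surfactant applied as directed soil spray preemergence and, concurrently, postemergence to plants 2–10 cm tall at one- to two-leaf stage. Greenhouse ~10 days; visual injury vs untreated controls, 0 (no effect) to 100 (complete control).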
# [2] = test system: barnyardgrass (Echinochloa crus-galli); assay: Test A pre-/postemergence plant response
# Summary of the method: as §1
# [3] = test system: wheat (Triticum aestivum); assay: Test A pre-/postemergence plant response
# Summary of the method: as §1
# [4] = test system: giant foxtail (Setaria faberii); assay: Test A pre-/postemergence plant response
# Summary of the method: as §1
# corn (Zea mays) = assay: Test A pre-/postemergence plant response
# Summary of the method: as §1
# [5] = test system: large crabgrass (Digitaria sanguinalis); assay: Test A pre-/postemergence plant response
# Summary of the method: as §1
# [6] = test system: pigweed (Amaranthus retroflexus); assay: Test A pre-/postemergence plant response
# Summary of the method: as §1
# [7] = test system: morningglory (Ipomoea spp.); assay: Test A pre-/postemergence plant response
# Summary of the method: as §1
# rice (Oryza sativa) = assay: Test B flooded paddy test; conditions: for Plant response rating, Flood, Rice: 250 g ai/ha, flooded paddy test, visual rating on 0 to 100 scale (0 no effect, 100 complete control) after 13 to 15 days; for Plant response rating, Rice: Flood (flooded paddy test), 13 to 15 days; for Rice plant response rating: Flood, 31 g ai/ha, scale 0 to 100 (0 no effect, 100 complete control)
# Summary of the method: (§2)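 Ratings are visual, 0–100 (100 = complete control), taken versus untreated controls 13 to 15 days after treatment in the greenhouse. Compound went straight into paddy water held 3 cm above soil, applied to 2-leaf-stage plants of four species.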
# [8] = test system: barnyardgrass (Echinochloa crus-galli); assay: Test B flooded paddy test; conditions: for Plant response rating, Flood, Barnyardgrass: 250 g ai/ha, flooded paddy test, visual rating on 0 to 100 scale (0 no effect, 100 complete control) after 13 to 15 days; for Plant response rating, Barnyardgrass: Flood (flooded paddy test), 13 to 15 days; for Barnyardgrass plant response rating: Flood, 31 g ai/ha, scale 0 to 100 (0 no effect, 100 complete control)
# Summary of the method: as §2
# [9] = test system: ducksalad (Heteranthera limosa); assay: Test B flooded paddy test; conditions: for Plant response rating, Flood, Ducksalad: 250 g ai/ha, flooded paddy test, visual rating on 0 to 100 scale (0 no effect, 100 complete control) after 13 to 15 days; for Plant response rating, Ducksalad: Flood (flooded paddy test), 13 to 15 days; for Ducksalad plant response rating: Flood, 31 g ai/ha, scale 0 to 100 (0 no effect, 100 complete control)
# Summary of the method: as §2
# [10] = test system: umbrella sedge (Cyperus difformis); assay: Test B flooded paddy test; conditions: for Plant response rating, Flood, Sedge, Umbrella: 250 g ai/ha, flooded paddy test, visual rating on 0 to 100 scale (0 no effect, 100 complete control) after 13 to 15 days; for Plant response rating, Sedge, Umbrella: Flood (flooded paddy test), 13 to 15 days; for Sedge, Umbrella plant response rating: Flood, 31 g ai/ha, scale 0 to 100 (0 no effect, 100 complete control)
# Summary of the method: as §2
# [11] = Postemergence, 125 g ai/ha, 0 to 100 scale where 0 is no effect and 100 is complete control
# [12] = Postemergence, 500 g ai/ha, visual injury, 0 to 100 scale (0 no effect, 100 complete control), approx. ten days
# [13] = Preemergence, 125 g ai/ha, 0 to 100 scale, 0 = no effect, 100 = complete control
# [14] = Preemergence, 500 g ai/ha, 0 to 100 scale, 0 = no effect, 100 = complete control
# [15] = 62 g ai/ha, scale of 0 to 100 where 0 is no effect and 100 is complete control
# [16] = 125 g ai/ha, scale 0 to 100, 0 is no effect, 100 is complete control
# [17] = Postemergence, 1000 g ai/ha, 0 to 100 scale, 0 = no effect, 100 = complete control, approx. ten days
# [18] = Preemergence, 1000 g ai/ha, visual injury, 0 to 100 scale (0 no effect, 100 complete control), approx. ten days
structure (smiles),measurement,setting,value
O=C1CCCC(O)=C1C(=O)c1cnc(-c2ccsc2)n(C2CCOCC2)c1=O [Compound 186],"Plant response rating, Velvetleaf",[1]; [11],100
same,Velvetleaf plant response rating,[1]; [12],100
same,"Plant response rating, Velvetleaf",[1]; [13],60
same,"Plant response rating, Velvetleaf",[1]; [14],100
same,"Plant response rating, Barnyardgrass",[2]; [11],80
same,Barnyardgrass plant response rating,[2]; [12],90
same,"Plant response rating, Barnyardgrass",[2]; [13],0
same,"Plant response rating, Barnyardgrass",[2]; [14],60
same,"Plant response rating, Wheat",[3]; [11],0
same,Wheat plant response rating,[3]; [12],0
same,"Plant response rating, Wheat",[3]; [13],0
same,"Plant response rating, Wheat",[3]; [14],0
same,"Plant response rating, Foxtail, Giant",[4]; [11],80
same,"Foxtail, Giant plant response rating",[4]; [12],90
same,"Plant response rating, Foxtail, Giant",[4]; [13],20
same,"Plant response rating, Foxtail, Giant",[4]; [14],60
same,"Plant response rating, Corn",corn (Zea mays); [11],0
same,Corn plant response rating,corn (Zea mays); [12],60
same,"Plant response rating, Corn",corn (Zea mays); [13],0
same,"Plant response rating, Corn",corn (Zea mays); [14],0
same,"Plant response rating, Crabgrass, Large",[5]; [11],90
same,"Crabgrass, Large plant response rating",[5]; [12],90
same,"Plant response rating, Crabgrass, Large",[5]; [13],30
same,"Plant response rating, Crabgrass, Large",[5]; [14],80
same,"Plant response rating, Pigweed",[6]; [11],100
same,Pigweed plant response rating,[6]; [12],100
same,"Plant response rating, Pigweed",[6]; [13],50
same,"Plant response rating, Pigweed",[6]; [14],100
same,"Plant response rating, Morningglory",[7]; [11],100
same,Morningglory plant response rating,[7]; [12],100
same,"Plant response rating, Morningglory",[7]; [13],20
same,"Plant response rating, Morningglory",[7]; [14],90
same,"Plant response rating, Flood, Rice",rice (Oryza sativa),65
same,"Plant response rating, Rice",rice (Oryza sativa); [15],20
same,"Plant response rating, Rice",rice (Oryza sativa); [16],45
same,Rice plant response rating,rice (Oryza sativa),10
same,"Plant response rating, Flood, Barnyardgrass",[8],30
same,"Plant response rating, Barnyardgrass",[8]; [15],20
same,"Plant response rating, Barnyardgrass",[8]; [16],30
same,Barnyardgrass plant response rating,[8],0
same,"Plant response rating, Flood, Ducksalad",[9],100
same,"Plant response rating, Ducksalad",[9]; [15],90
same,"Plant response rating, Ducksalad",[9]; [16],90
same,Ducksalad plant response rating,[9],90
same,"Plant response rating, Flood, Sedge, Umbrella",[10],90
same,"Plant response rating, Sedge, Umbrella",[10]; [15],80
same,"Plant response rating, Sedge, Umbrella",[10]; [16],80
same,"Sedge, Umbrella plant response rating",[10],70
CCCCn1c(C2CC2)ncc(C(=O)C2=C(O)CCCC2=O)c1=O [Compound 193],"Plant response rating, Velvetleaf",[1]; [11],100
same,Velvetleaf plant response rating,[1]; [12],100
same,"Plant response rating, Velvetleaf",[1]; [13],100
same,"Plant response rating, Velvetleaf",[1]; [14],100
same,"Plant response rating, Barnyardgrass",[2]; [11],90
same,Barnyardgrass plant response rating,[2]; [12],100
same,"Plant response rating, Barnyardgrass",[2]; [13],80
same,"Plant response rating, Barnyardgrass",[2]; [14],90
same,"Plant response rating, Wheat",[3]; [11],40
same,Wheat plant response rating,[3]; [12],70
same,"Plant response rating, Wheat",[3]; [13],0
same,"Plant response rating, Wheat",[3]; [14],50
same,"Plant response rating, Foxtail, Giant",[4]; [11],90
same,"Foxtail, Giant plant response rating",[4]; [12],100
same,"Plant response rating, Foxtail, Giant",[4]; [13],90
same,"Plant response rating, Foxtail, Giant",[4]; [14],90
same,"Plant response rating, Corn",corn (Zea mays); [11],10
same,Corn plant response rating,corn (Zea mays); [12],40
same,"Plant response rating, Corn",corn (Zea mays); [13],0
same,"Plant response rating, Corn",corn (Zea mays); [14],0
same,"Plant response rating, Crabgrass, Large",[5]; [11],100
same,"Crabgrass, Large plant response rating",[5]; [12],100
same,"Plant response rating, Crabgrass, Large",[5]; [13],90
same,"Plant response rating, Crabgrass, Large",[5]; [14],100
same,"Plant response rating, Pigweed",[6]; [11],100
same,Pigweed plant response rating,[6]; [12],100
same,"Plant response rating, Pigweed",[6]; [13],100
same,"Plant response rating, Pigweed",[6]; [14],100
same,"Plant response rating, Morningglory",[7]; [11],100
same,Morningglory plant response rating,[7]; [12],100
same,"Plant response rating, Morningglory",[7]; [13],80
same,"Plant response rating, Morningglory",[7]; [14],90
same,"Plant response rating, Flood, Rice",rice (Oryza sativa),65
same,"Plant response rating, Rice",rice (Oryza sativa); [15],15
same,"Plant response rating, Rice",rice (Oryza sativa); [16],30
same,Rice plant response rating,rice (Oryza sativa),0
same,"Plant response rating, Flood, Barnyardgrass",[8],50
same,"Plant response rating, Barnyardgrass",[8]; [15],20
same,"Plant response rating, Barnyardgrass",[8]; [16],45
same,Barnyardgrass plant response rating,[8],0
same,"Plant response rating, Flood, Ducksalad",[9],100
same,"Plant response rating, Ducksalad",[9]; [15],50
same,"Plant response rating, Ducksalad",[9]; [16],85
same,Ducksalad plant response rating,[9],40
same,"Plant response rating, Flood, Sedge, Umbrella",[10],90
same,"Plant response rating, Sedge, Umbrella",[10]; [15],30
same,"Plant response rating, Sedge, Umbrella",[10]; [16],70
same,"Sedge, Umbrella plant response rating",[10],0
CCCc1ncc(C(=O)C2=C(O)CCCC2=O)c(=O)n1-c1ccccc1 [Compound 217],"Plant response rating, Velvetleaf",[1]; [17],100
same,"Plant response rating, Velvetleaf",[1]; [18],100
same,"Plant response rating, Barnyardgrass",[2]; [17],90
same,"Plant response rating, Barnyardgrass",[2]; [18],80
same,"Plant response rating, Wheat",[3]; [17],40
same,"Plant response rating, Wheat",[3]; [18],30
same,"Plant response rating, Foxtail, Giant",[4]; [17],80
same,"Plant response rating, Foxtail, Giant",[4]; [18],80
same,"Plant response rating, Corn",corn (Zea mays); [17],40
same,"Plant response rating, Corn",corn (Zea mays); [18],0
same,"Plant response rating, Crabgrass, Large",[5]; [17],100
same,"Plant response rating, Crabgrass, Large",[5]; [18],100
same,"Plant response rating, Pigweed",[6]; [17],100
same,"Plant response rating, Pigweed",[6]; [18],100
same,"Plant response rating, Morningglory",[7]; [17],100
same,"Plant response rating, Morningglory",[7]; [18],70
same,"Plant response rating, Flood, Rice",rice (Oryza sativa),20
same,"Plant response rating, Rice",rice (Oryza sativa); [15],0
same,"Plant response rating, Flood, Barnyardgrass",[8],0
same,"Plant response rating, Barnyardgrass",[8]; [15],0
same,"Plant response rating, Flood, Ducksalad",[9],40
same,"Plant response rating, Ducksalad",[9]; [15],0
same,"Plant response rating, Flood, Sedge, Umbrella",[10],40
same,"Plant response rating, Sedge, Umbrella",[10]; [15],40
CCc1cccc(-n2c(-c3ccccc3)ncc(C(=O)C3=C(O)CCCC3=O)c2=O)c1 [Compound 220],"Plant response rating, Velvetleaf",[1]; [11],100
same,Velvetleaf plant response rating,[1]; [12],100
same,"Plant response rating, Velvetleaf",[1]; [13],40
same,"Plant response rating, Velvetleaf",[1]; [14],100
same,"Plant response rating, Barnyardgrass",[2]; [11],90
same,Barnyardgrass plant response rating,[2]; [12],90
same,"Plant response rating, Barnyardgrass",[2]; [13],10
same,"Plant response rating, Barnyardgrass",[2]; [14],90
same,"Plant response rating, Wheat",[3]; [11],0
same,Wheat plant response rating,[3]; [12],20
same,"Plant response rating, Wheat",[3]; [13],0
same,"Plant response rating, Wheat",[3]; [14],0
same,"Plant response rating, Foxtail, Giant",[4]; [11],20
same,"Foxtail, Giant plant response rating",[4]; [12],60
same,"Plant response rating, Foxtail, Giant",[4]; [13],0
same,"Plant response rating, Foxtail, Giant",[4]; [14],40
same,"Plant response rating, Corn",corn (Zea mays); [11],0
same,Corn plant response rating,corn (Zea mays); [12],30
same,"Plant response rating, Corn",corn (Zea mays); [13],0
same,"Plant response rating, Corn",corn (Zea mays); [14],10
same,"Plant response rating, Crabgrass, Large",[5]; [11],50
same,"Crabgrass, Large plant response rating",[5]; [12],90
same,"Plant response rating, Crabgrass, Large",[5]; [13],20
same,"Plant response rating, Crabgrass, Large",[5]; [14],90
same,"Plant response rating, Pigweed",[6]; [11],100
same,Pigweed plant response rating,[6]; [12],100
same,"Plant response rating, Pigweed",[6]; [13],80
same,"Plant response rating, Pigweed",[6]; [14],100
same,"Plant response rating, Morningglory",[7]; [11],100
same,Morningglory plant response rating,[7]; [12],100
same,"Plant response rating, Morningglory",[7]; [13],0
same,"Plant response rating, Morningglory",[7]; [14],70
same,"Plant response rating, Flood, Rice",rice (Oryza sativa),70
same,"Plant response rating, Rice",rice (Oryza sativa); [15],15
same,"Plant response rating, Rice",rice (Oryza sativa); [16],50
same,Rice plant response rating,rice (Oryza sativa),0
same,"Plant response rating, Flood, Barnyardgrass",[8],40
same,"Plant response rating, Barnyardgrass",[8]; [15],0
same,"Plant response rating, Barnyardgrass",[8]; [16],30
same,Barnyardgrass plant response rating,[8],0
same,"Plant response rating, Flood, Ducksalad",[9],100
same,"Plant response rating, Ducksalad",[9]; [15],40
same,"Plant response rating, Ducksalad",[9]; [16],85
same,Ducksalad plant response rating,[9],30
same,"Plant response rating, Flood, Sedge, Umbrella",[10],85
same,"Plant response rating, Sedge, Umbrella",[10]; [15],0
same,"Plant response rating, Sedge, Umbrella",[10]; [16],20
same,"Sedge, Umbrella plant response rating",[10],0
